{"source": "patent US20240245770A1", "about": "“COMPOSITIONS AND METHODS FOR TREATING NEUROMUSCULAR DISORDERS” (The Regents of the University of California, priority 2019, published 2024)", "tested_on": "OSCSCs", "experiment": "NAC blocking of H2O2 mediated cell death in OSCSCs", "assay_type": "cell-based, human", "details": "NAC 20 mM, 24 hours, FIG. 68", "data": [{"smiles": "CC(=O)N[C@@H](CS)C(=O)O", "note": "[NAC, N-Acetyl-Cysteine]", "values": [{"measurement": "H2O2 mediated cell death (Fs/ss and PI positive cells)", "result": "blocks H2O2 mediated Cell death in OSCSCs"}]}]}
